From PubChem BioAssay AID652276 (Vanderbilt Specialized Chemistry Center, 2013)
Active and inactive are the calls of the source. The rule behind the calls is not given here.

Target: Activin receptor type-1 (Homo sapiens) (UniProt Q04771)
Test: ACVR1 enzymatic activity inhibition – biochemical, secondary in vitro, SAR follow-up (AID 652276)
Conditions: in vitro ALK2 kinase assay; for remaining activity (low = inhibition): at 100 µM (top of the series)

Chain of Activin receptor type-1 (Homo sapiens) (Q04771 whole entry, looked up): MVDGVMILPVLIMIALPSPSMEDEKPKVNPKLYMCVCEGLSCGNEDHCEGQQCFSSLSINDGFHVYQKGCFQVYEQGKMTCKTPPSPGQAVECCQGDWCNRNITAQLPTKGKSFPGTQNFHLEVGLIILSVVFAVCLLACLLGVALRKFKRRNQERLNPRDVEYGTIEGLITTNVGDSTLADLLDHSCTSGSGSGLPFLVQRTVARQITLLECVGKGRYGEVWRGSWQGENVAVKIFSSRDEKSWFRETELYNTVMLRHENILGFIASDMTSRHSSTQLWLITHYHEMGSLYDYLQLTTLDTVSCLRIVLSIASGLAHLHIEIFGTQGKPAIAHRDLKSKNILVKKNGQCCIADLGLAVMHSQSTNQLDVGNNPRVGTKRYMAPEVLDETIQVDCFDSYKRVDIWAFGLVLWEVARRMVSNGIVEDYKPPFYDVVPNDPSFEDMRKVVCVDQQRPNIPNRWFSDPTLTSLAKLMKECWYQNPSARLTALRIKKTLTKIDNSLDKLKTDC

IC50 | remaining activity (low = inhibition) | Compound
110 nM |  | COc1ccc(-c2cnc3c(-c4cn[nH]c4)cnn3c2)cc1
 | 0.93 | c1ccc2c(-c3cnn4cc(-c5ccc(N6CCOCC6)cc5)cnc34)ccnc2c1
43 nM |  | c1cc(N2CCNCC2)ccc1-c1cnc2c(-c3cn[nH]c3)cnn2c1
33 nM |  | COc1ccc(-c2cnc3c(-c4ccnc5ccccc45)cnn3c2)cc1
53 nM |  | c1cc(N2CCOCC2)ccc1-c1cnc2c(-c3cn[nH]c3)cnn2c1
 | -0.03 | CN1CCN(c2ccc(-c3cnc4c(-c5ccnc6ccccc56)cnn4c3)cc2)CC1
121 nM |  | COc1ccc(-c2cnc3c(-c4ccnc5ncccc45)cnn3c2)cc1
 | inactive | COc1ccc(-c2cnc3c(-c4cccc5cccnc45)cnn3c2)cc1
